Source: ChEMBL document CHEMBL3217511, “Structure-activity evaluation of new uracil-based non-nucleoside inhibitors of HIV reverse transcriptase” (Medchemcomm, 2013)
pIC50: −log10 of the molar value.

Experiments:
[1] = molecular target: Human immunodeficiency virus type 1 reverse transcriptase (Human immunodeficiency virus 1, UniProt Q72547); assay: Inhibition of wild-type HIV1 Reverse transcriptase p51/p66 after 30 mins using alpha-[32P]dATP by liquid scintillation counting
[2] = system: Human immunodeficiency virus type 1 reverse transcriptase (Human immunodeficiency virus 1), Q72547 [V106A]; assay: Inhibition of HIV1 Reverse transcriptase p51/p66 V106A mutant at 10 uM after 30 mins using alpha-[32P]dATP by liquid scintillation counting
[3] = system: Human immunodeficiency virus type 1 reverse transcriptase (Human immunodeficiency virus 1), Q72547 [Y181C]; assay: Inhibition of HIV1 Reverse transcriptase p51/p66 Y181C mutant at 10 uM after 30 mins using alpha-[32P]dATP by liquid scintillation counting
[4] = molecular target: Human immunodeficiency virus type 1 reverse transcriptase (Human immunodeficiency virus 1) (UniProt Q72547); assay: Inhibition of wild-type HIV1 Reverse transcriptase p51/p66 at 10 uM after 30 mins using alpha-[32P]dATP by liquid scintillation counting
[5] = system: Human immunodeficiency virus 1; assay: Inhibition of HIV1 Reverse transcriptase p51/p66 G190A mutant at 10 uM after 30 mins using alpha-[32P]dATP by liquid scintillation counting
[6] = system: Human immunodeficiency virus type 1 reverse transcriptase (Human immunodeficiency virus 1), Q72547 [K103N]; assay: Inhibition of HIV1 Reverse transcriptase p51/p66 K103N mutant at 10 uM after 30 mins using alpha-[32P]dATP by liquid scintillation counting
[7] = Inhibition of HIV1 Reverse transcriptase p51/p66 G190A mutant after 30 mins using alpha-[32P]dATP by liquid scintillation counting; design: species or system Human immunodeficiency virus 1
[8] = system: Human immunodeficiency virus type 1 reverse transcriptase (Human immunodeficiency virus 1), Q72547 [L100I]; assay: Inhibition of HIV1 Reverse transcriptase p51/p66 L100I mutant at 10 uM after 30 mins using alpha-[32P]dATP by liquid scintillation counting
[9] = system: Human immunodeficiency virus type 1 reverse transcriptase (Human immunodeficiency virus 1), Q72547 [K103N,Y181C]; assay: Inhibition of HIV1 Reverse transcriptase p51/p66 K103N/Y181C mutant at 10 uM after 30 mins using alpha-[32P]dATP by liquid scintillation counting
[10] = molecular target: Human immunodeficiency virus type 1 reverse transcriptase (Human immunodeficiency virus 1, UniProt Q72547, K103N/Y181C); assay: Inhibition of HIV1 Reverse transcriptase p51/p66 K103N/Y181C mutant after 30 mins using alpha-[32P]dATP by liquid scintillation counting
[11] = system: Human immunodeficiency virus 1; assay: Selectivity ratio of IC50 for HIV1 Reverse transcriptase p51/p66 K103N mutant to IC50 for wild-type HIV1 Reverse transcriptase p51/p66
[12] = molecular target: Human immunodeficiency virus type 1 reverse transcriptase (Human immunodeficiency virus 1, UniProt Q72547, Y181C); assay: Inhibition of HIV1 Reverse transcriptase p51/p66 Y181C mutant after 30 mins using alpha-[32P]dATP by liquid scintillation counting
[13] = system: Human immunodeficiency virus 1; assay: Selectivity ratio of IC50 for HIV1 Reverse transcriptase p51/p66 L100I mutant to IC50 for wild-type HIV1 Reverse transcriptase p51/p66
[14] = molecular target: Human immunodeficiency virus type 1 reverse transcriptase (Human immunodeficiency virus 1, UniProt Q72547, L100I); assay: Inhibition of HIV1 Reverse transcriptase p51/p66 L100I mutant after 30 mins using alpha-[32P]dATP by liquid scintillation counting
[15] = molecular target: Human immunodeficiency virus type 1 reverse transcriptase (Human immunodeficiency virus 1, UniProt Q72547, K103N); assay: Inhibition of HIV1 Reverse transcriptase p51/p66 K103N mutant after 30 mins using alpha-[32P]dATP by liquid scintillation counting
[16] = molecular target: Human immunodeficiency virus type 1 reverse transcriptase (Human immunodeficiency virus 1, UniProt Q72547, V106A); assay: Inhibition of HIV1 Reverse transcriptase p51/p66 V106A mutant after 30 mins using alpha-[32P]dATP by liquid scintillation counting

O=C(Oc1cccc(Cn2ccc(=O)[nH]c2=O)c1)c1cc(Cl)cc(Cl)c1
pIC50 [1]: 4.38

O=C(Oc1ccc(Cn2ccc(=O)[nH]c2=O)cc1)c1ccccc1
pIC50 [1]: < 4.00

N#Cc1cccc(C(=O)OC2C=CC(n3ccc(=O)n(Cc4ccccc4)c3=O)C2)c1 (centres undefined)
pIC50 [1]: < 4.00

O=C(Cc1ccccc1)OC1C=CC(n2ccc(=O)n(Cc3cc(F)cc(F)c3)c2=O)C1 (centres undefined)
pIC50 [1]: < 4.00

N#Cc1cccc(C(=O)OC2C=CC(n3ccc(=O)[nH]c3=O)C2)c1 (centres undefined)
pIC50 [1]: < 4.00

O=C(Oc1ccc(Cn2ccc(=O)n(Cc3ccccc3)c2=O)cc1)c1ccccc1
pIC50 [1]: < 4.00

O=C(OC1C=CC(n2ccc(=O)n(C(=O)c3cc(Cl)cc(Cl)c3)c2=O)C1)c1cc(Cl)cc(Cl)c1 (centres undefined)
pIC50 [1]: < 4.00

O=C(OC1C=CC(n2ccc(=O)[nH]c2=O)C1)c1cc(Cl)cc(Cl)c1 (centres undefined)
pIC50 [1]: < 4.00

O=C(Oc1cccc(Cn2ccc(=O)[nH]c2=O)c1)c1ccccc1
pIC50 [1]: < 4.00

O=C(Cc1ccccc1)OC1C=CC(n2ccc(=O)n(Cc3ccccc3)c2=O)C1 (centres undefined)
pIC50 [1]: 4.28

Cc1cc(C)cc(C(=O)OC2C=CC(n3ccc(=O)[nH]c3=O)C2)c1 (centres undefined)
pIC50 [1]: < 4.00

O=C(Oc1cccc(Cn2ccc(=O)n(Cc3ccccc3)c2=O)c1)c1ccccc1
pIC50 [1]: 4.49

O=C(OC1C=CC(n2ccc(=O)n(Cc3ccccc3)c2=O)C1)c1ccccc1 (centres undefined)
inhibition [2]: 12%
inhibition [3]: 11%
inhibition [4]: 45%
inhibition [5]: < 10%
inhibition [6]: 26%
pIC50 [7]: < 4.30
inhibition [8]: 83%
inhibition [9]: 15%

O=C(CCc1ccccc1)OC1C=CC(n2ccc(=O)n(Cc3ccccc3)c2=O)C1 (centres undefined)
pIC50 [1]: < 4.00

O=C(Oc1ccccc1Cn1ccc(=O)n(Cc2ccccc2)c1=O)c1ccccc1
pIC50 [1]: < 4.00

Cc1cc(C)cc(C(=O)OC2C=CC(n3ccc(=O)n(C(=O)c4cc(C)cc(C)c4)c3=O)C2)c1 (centres undefined)
pIC50 [1]: < 4.00

Cc1ccnc2c1NC(=O)c1cccnc1N2C1CC1 [NEVIRAPINE]
inhibition [2]: < 10%
inhibition [3]: < 10%
inhibition [5]: < 10%
inhibition [6]: < 10%
pIC50 [7]: < 2.70
inhibition [8]: 48%
inhibition [9]: < 10%

Cc1cc(C)cc(C(=O)OC2C=CC(n3ccc(=O)n(Cc4ccccc4)c3=O)C2)c1 (centres undefined)
inhibition [2]: 14%
inhibition [3]: 24%
inhibition [4]: 52%
pIC50 [10]: < 4.70
pIC50 [1]: 5.09
Ratio IC50 [11]: 2.11
pIC50 [12]: < 4.70
Ratio IC50 [13]: 0.26
pIC50 [14]: 5.68
pIC50 [15]: 4.76
inhibition [5]: < 10%
pIC50 [16]: < 4.70
inhibition [6]: 37%
pIC50 [7]: < 4.00
inhibition [8]: 77%
inhibition [9]: 23%

O=C(OC1C=CC(n2ccc(=O)n(Cc3ccccc3)c2=O)C1)c1cc(Cl)cc(Cl)c1 (centres undefined)
inhibition [2]: 20%
inhibition [3]: 17%
inhibition [4]: 59%
pIC50 [10]: < 5.00
pIC50 [1]: 5.29
Ratio IC50 [11]: 1.69
pIC50 [12]: < 5.00
Ratio IC50 [13]: 0.25
pIC50 [14]: 5.89
pIC50 [15]: 5.06
inhibition [5]: < 10%
pIC50 [16]: < 5.00
inhibition [6]: 53%
pIC50 [7]: < 4.00
inhibition [8]: 89%
inhibition [9]: 25%

O=C(Oc1ccccc1Cn1ccc(=O)[nH]c1=O)c1ccccc1
pIC50 [1]: < 4.00

O=C(CCc1ccccc1)OC1C=CC(n2ccc(=O)n(Cc3cc(F)cc(F)c3)c2=O)C1 (centres undefined)
pIC50 [1]: < 4.00
